# Experimental data: article PMC3605638 (The Journal of Biological Chemistry, 2013)
# Biological target: T1, D. discoideum class I RNR (NrdA + NrdB) (Dictyostelium discoideum, UniProt Q54Q71)
# T1 sequence (Q54Q71 1-870): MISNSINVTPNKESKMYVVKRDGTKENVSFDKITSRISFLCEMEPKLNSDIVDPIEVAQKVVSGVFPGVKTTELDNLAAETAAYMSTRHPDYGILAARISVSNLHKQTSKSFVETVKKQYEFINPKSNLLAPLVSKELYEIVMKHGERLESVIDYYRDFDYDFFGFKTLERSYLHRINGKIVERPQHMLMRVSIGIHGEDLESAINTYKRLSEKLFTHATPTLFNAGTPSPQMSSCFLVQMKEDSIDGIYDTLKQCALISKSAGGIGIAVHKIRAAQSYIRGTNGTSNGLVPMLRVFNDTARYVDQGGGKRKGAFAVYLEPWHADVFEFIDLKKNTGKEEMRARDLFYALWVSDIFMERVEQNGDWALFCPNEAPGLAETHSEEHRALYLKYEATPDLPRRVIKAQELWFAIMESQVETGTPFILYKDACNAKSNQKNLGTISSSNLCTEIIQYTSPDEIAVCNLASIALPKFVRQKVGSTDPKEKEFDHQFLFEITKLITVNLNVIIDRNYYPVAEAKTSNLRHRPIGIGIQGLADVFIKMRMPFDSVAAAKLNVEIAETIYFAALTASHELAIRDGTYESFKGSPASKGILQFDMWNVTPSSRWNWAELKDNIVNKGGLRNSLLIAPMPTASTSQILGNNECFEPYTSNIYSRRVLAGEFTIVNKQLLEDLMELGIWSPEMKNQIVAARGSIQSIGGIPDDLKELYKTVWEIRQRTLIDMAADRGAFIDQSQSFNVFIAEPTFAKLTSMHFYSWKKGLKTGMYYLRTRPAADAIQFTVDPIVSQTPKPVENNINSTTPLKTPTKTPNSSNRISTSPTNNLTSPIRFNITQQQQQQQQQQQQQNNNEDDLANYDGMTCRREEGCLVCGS
# T1 sequence (P42521 1-338 partner): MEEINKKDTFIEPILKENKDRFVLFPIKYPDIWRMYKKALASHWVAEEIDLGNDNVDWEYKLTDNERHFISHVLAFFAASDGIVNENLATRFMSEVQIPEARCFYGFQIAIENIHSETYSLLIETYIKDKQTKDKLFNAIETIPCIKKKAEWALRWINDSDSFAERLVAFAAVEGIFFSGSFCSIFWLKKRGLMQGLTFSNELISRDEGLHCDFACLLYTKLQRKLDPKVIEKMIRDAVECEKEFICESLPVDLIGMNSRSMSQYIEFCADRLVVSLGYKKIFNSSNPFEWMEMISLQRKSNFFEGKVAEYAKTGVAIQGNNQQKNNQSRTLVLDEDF
# Experiment: radiolabelled GDP reduction assay
# Type: biochemical
# Conditions: dTTP as effector; 0.7 mM [14C]GDP; labelled compound; pH 7.5, 25 °C
smiles,measurement,value
Nc1nc2c(ncn2[C@@H]2O[C@H](COP(=O)(O)OP(=O)(O)O)[C@@H](O)[C@H]2O)c(=O)[nH]1 [GDP],radiolabelled GDP reduction assay,characterized in vitro with CDP or GDP as substrate
